Laboratory results: ChEMBL document CHEMBL1122556, “Design, synthesis, and binding characteristics of an opiate receptor mimetic peptide” (J Med Chem, 1984)
Residues, ends and D or L forms follow the SMILES beside them. *: point of attachment. Desaminotyrosyl = O=C(CCc1ccc(O)cc1)*; Hydrocinnamoyl = O=C(CCc1ccccc1)*

Experiment: Compound was evaluated for the binding strength to receptor Mimetic peptide (RMP) at 5 degree celsius, Ki was determined from its potency in displacing [Leu]-enkephalin binding.

| SMILES | Ki [µM] |
| --- | --- |
| CSCC[C@H](NC(=O)[C@H](Cc1ccccc1)NC(=O)CNC(=O)CNC(=O)[C@@H](N)Cc1ccc(O)cc1)C(=O)O | 49.5 |
| CC(C)C[C@H](NC(=O)[C@H](Cc1ccccc1)NC(=O)CNC(=O)CNC(=O)[C@H](N)Cc1ccccc1)C(=O)O | 95.5 |
| CC(C)C[C@@H](NC(=O)[C@@H](Cc1ccccc1)NC(=O)CNC(=O)CNC(=O)[C@H](N)Cc1ccc(O)cc1)C(=O)O | 400 |
| CC(C)C[C@H](NC(=O)[C@H](Cc1ccccc1)NC(=O)CNC(=O)[C@@H](N)Cc1ccc(O)cc1)C(=O)O | 160 |
| N=C(N)NCCC[C@H](NC(=O)[C@H](Cc1ccccc1)NC(=O)[C@@H](N)Cc1cnc[nH]1)C(=O)N[C@@H](Cc1c[nH]c2ccccc12)C(=O)O | 5950 |
| CC(C)C[C@H](NC(=O)[C@H](Cc1ccccc1)NC(=O)CNC(=O)CNC(=O)CCc1ccc(O)cc1)C(=O)O (Desaminotyrosyl-GGFL-OH) | 205 |
| CC(C)C[C@H](NC(=O)[C@H](Cc1ccccc1)NC(=O)CNC(=O)CNC(=O)CCc1ccccc1)C(=O)O (Hydrocinnamoyl-GGFL-OH) | 620 |
| C=CCN1CC[C@]23c4c5ccc(O)c4O[C@H]2C(=O)CC[C@@]3(O)[C@H]1C5 [NALOXONE] | 7460 |
